Measured values published in US20050176784A1, “Malononitrile compounds and their use as pesticides” (priority 2002, published 2005).

What was measured:
Assay type in all cases: in vivo
Blattella germanica = assay: Test Example 4: filter paper with sucrose bait, Blattella germanica imagoes; conditions: 144 h, 0.7 ml on filter paper, two male imagoes, after 6 days, read-out: rate of dead pests
Procedure: The formulation obtained according to Formulation Example 5 using the present invention compounds (1), (4), (8), (9), (11), (12), (13) and (14) respectively, was diluted with water so that the active ingredient concentration came to 500 ppm to prepare a pesticidal solution for test.
(§1) On the bottom of a polyethylene cup having a diameter of 5.5 cm, a filter paper having the same diameter was laid, and 0.7 ml of the above pesticidal solution for test was added dropwise on the filter paper, followed by putting 30 mg of sucrose on it uniformly as a bait. Two male Blattella germanica imagoes were set free in the polyethylene cup and covered it with a lid. After 6 days, the number of surviving Blattella germanica was examined and the rate of dead pests was calculated.

Musca domestics = assay: Test Example 3: filter paper with sucrose bait, Musca domestica imagoes; conditions: 0.7 ml on filter paper, ten female imagoes, after 24 hours, read-out: rate of dead pests
Procedure: The formulation obtained according to Formulation Example 5 using the present invention compounds (1), (2), (4), (8), (9), (10), (11), (13), (14) and (15) respectively, was diluted with water so that the active ingredient concentration came to 500 ppm to prepare a pesticidal solution for test.
as §1, with “Ten female Musca domestics” for “Two male Blattella germanica”, “24 hours,” for “6 days,”, “Musca domestics” for “Blattella germanica”

Culex pipiens pallens = assay: Test Example 5: larvae in treated water, Culex pipiens pallens; conditions: 24 h, active ingredient concentration 3.5 ppm in water, twenty last-instar larvae, after one day, read-out: rate of dead pests
Procedure: The formulation obtained according to Formulation Example 5 using the present invention compounds (3), (4), (8), (9), (10), (11), (12), (13), (14) and (15) respectively, was diluted with water so that the active ingredient concentration came to 500 ppm to prepare a pesticidal solution for test. 0.7 ml of above pesticidal solution for test was added to 100 ml of ion exchanged water (active ingredient concentration: 3.5 ppm). Twenty last-instar larvae of Culex pipiens pallens were set free in the solution. After one day, the number of surviving Culex pipiens pallens was examined and the rate of dead pests was calculated.

SMILES	pest or weed control at 500 ppm (Blattella germanica)	pest or weed control at 500 ppm (Musca domestics)	pest or weed control at 3.5 ppm (Culex pipiens pallens)
C=CCC(C#N)(C#N)Cc1ccc(Cl)nc1 [Compound 1, 2-allyl-2-((6-Chloro-3-pyridyl)methyl)malononitrile]	100%	≥ 90%	–
C=CCC(C#N)(C#N)C(C#N)c1ccc(Cl)nc1 (stereo not shown) [Compound 2, 1-(6-Chloro-3-pyridyl)-1,2,2-tricyano-4-pentene]	–	≥ 90%	–
N#CC(C#N)(CCC(F)=C(F)F)Cc1ccc(Cl)nc1 [Compound 3, 2-((6-Chloro-3-pyridyl)methyl)-2-(3,4,4-trifluoro-3-butenyl)malononitrile]	–	–	100%
N#CC(C#N)(CCC(F)(F)F)Cc1ccc(Cl)nc1 [Compound 4, 2-((6-Chloro-3-pyridyl)methyl)-2-(3,3,3-trifluoropropyl)malononitrile]	100%	≥ 90%	100%
N#CC(C#N)(CCC(F)(F)F)Cc1cccc(Cl)n1 [Compound 8, 2-((6-chloro-2-pyridyl)methyl)-2-(3,3,3-trifluoropropyl)malononitrile]	100%	≥ 90%	100%
N#CC(C#N)(CCC(F)(F)F)Cc1ccc(C(F)(F)F)nc1 [Compound 9, 2-((6-(trifluoromethyl)-3-pyridyl)methyl)-2-(3,3,3-trifluoropropyl)malononitrile]	100%	≥ 90%	100%
N#CC(C#N)(CCC(F)(F)F)Cc1ccc(Br)nc1 [Compound 10, 2-((6-bromo-3-pyridyl)methyl)-2-(3,3,3-trifluoropropyl)malononitrile]	–	≥ 90%	100%
C#Cc1ccc(CC(C#N)(C#N)CCC(F)(F)F)cn1 [Compound 11, 2-((6-ethynyl-3-pyridyl)methyl)-2-(3,3,3-trifluoropropyl)malononitrile]	100%	≥ 90%	100%
N#Cc1ccc(CC(C#N)(C#N)CCC(F)(F)F)cn1 [Compound 12, 2-((6-cyano-3-pyridyl)methyl)-2-(3,3,3-trifluoropropyl)malononitrile]	100%	–	100%
N#CC(C#N)(CCC(F)(F)F)Cc1ccc(F)nc1 [Compound 13, 2-((6-fluoro-3-pyridyl)methyl)-2-(3,3,3-trifluoropropyl)malononitrile]	100%	≥ 90%	100%
N#CC(C#N)(CCC(F)(F)F)Cc1cccc(Br)n1 [Compound 14, 2-((6-bromo-2-pyridyl)methyl)-2-(3,3,3-trifluoropropyl)malononitrile]	100%	≥ 90%	100%
N#CC(C#N)(CCC(F)(F)F)Cc1cnc(Cl)c(Cl)c1 [Compound 15, 2-((5,6-dichloro-3-pyridyl)methyl)-2-(3,3,3-trifluoropropyl)malononitrile]	–	≥ 90%	100%
